Experiment [1] has as its system A2780 ovarian cancer cells. Briefly: Cellular proliferation in A2780 cells, Cell Titer Glo (Biological Method 4). Type of experiment: cell-based. As to conditions: Homo sapiens. Here is the method: In addition, many of the compounds of Table 1 were tested to determine their inhibitory activity in a cellular proliferation assay according to Biological Method 4.
The ability of the compounds of the invention to inhibit cellular proliferation were determined by using Cell Titer Glo, a commercially available assay from Promega Corporation. A2780 ovarian cancer cells were seeded in TC treated 96-well plates at a density of 1,000 per well in DMEM, 10% FBS, 1% Sodium Pyruvate, and 1% Penicillin Streptomycin for a minimum of 2 hrs prior to addition of compound. For each concentration of test compound, 2 μl (500×) aliquots of compound or 100% DMSO diluted in 500 μl of culture medium for 2× concentration then diluted 1× on the Cells. Cells were incubated for 72 hrs at 37° C., 5% CO2. After the 72 hour incubation, Cell Titer Glo reagent is added to determine number of viable cells remaining after exposure to the compound, and the EC50 value was calculated. The assay was performed according to the manufacturer's instruction (Promega Corporation, Madison, Wis. USA). Each experimental condition was performed in duplicate.
(Cellular ATP, detected with luciferase, serves as a proxy for viable cell number.)

The target of the next experiment is PI3 kinase alpha (Homo sapiens, UniProt P42336). Briefly: PI3K ATP depletion assay (Biological Method 1, Assay 3; KinaseGlo luminescence). The settings on record: ATP depletion assay, read-out: PI3 Kinase Alpha, IC50. It counts as biochemical. The method, then: The PI3 kinase alpha IC50 values shown in Table 1 were determined according to the ATP depletion assay as disclosed herein in Biological Method 1.
Assay 3: ATP Depletion Assay
Compounds to be tested are dissolved in DMSO and directly distributed into a black 384-well plate at 1.25 μL per well. To start the reaction, 25 μL of 10 nM PI3 kinase and 5 μg/mL 1-alpha-phosphatidylinositol (PI) are added into each well followed by 25 μL of 2 μM ATP. The reaction is performed until approx 50% of the ATP is depleted, and then stopped by the addition of 25 μL of KinaseGlo solution purchased from Promega. The stopped reaction is incubated for 5 minutes and the remaining ATP is then detected via luminescence.

Where [2] appears, read: ovarian cancer cell line A2780, Biological Method 4.

Each structure is given as a SMILES string. Where two headings read alike, the source gives them in different places.

Chain of PI3 kinase alpha (P42336 whole entry): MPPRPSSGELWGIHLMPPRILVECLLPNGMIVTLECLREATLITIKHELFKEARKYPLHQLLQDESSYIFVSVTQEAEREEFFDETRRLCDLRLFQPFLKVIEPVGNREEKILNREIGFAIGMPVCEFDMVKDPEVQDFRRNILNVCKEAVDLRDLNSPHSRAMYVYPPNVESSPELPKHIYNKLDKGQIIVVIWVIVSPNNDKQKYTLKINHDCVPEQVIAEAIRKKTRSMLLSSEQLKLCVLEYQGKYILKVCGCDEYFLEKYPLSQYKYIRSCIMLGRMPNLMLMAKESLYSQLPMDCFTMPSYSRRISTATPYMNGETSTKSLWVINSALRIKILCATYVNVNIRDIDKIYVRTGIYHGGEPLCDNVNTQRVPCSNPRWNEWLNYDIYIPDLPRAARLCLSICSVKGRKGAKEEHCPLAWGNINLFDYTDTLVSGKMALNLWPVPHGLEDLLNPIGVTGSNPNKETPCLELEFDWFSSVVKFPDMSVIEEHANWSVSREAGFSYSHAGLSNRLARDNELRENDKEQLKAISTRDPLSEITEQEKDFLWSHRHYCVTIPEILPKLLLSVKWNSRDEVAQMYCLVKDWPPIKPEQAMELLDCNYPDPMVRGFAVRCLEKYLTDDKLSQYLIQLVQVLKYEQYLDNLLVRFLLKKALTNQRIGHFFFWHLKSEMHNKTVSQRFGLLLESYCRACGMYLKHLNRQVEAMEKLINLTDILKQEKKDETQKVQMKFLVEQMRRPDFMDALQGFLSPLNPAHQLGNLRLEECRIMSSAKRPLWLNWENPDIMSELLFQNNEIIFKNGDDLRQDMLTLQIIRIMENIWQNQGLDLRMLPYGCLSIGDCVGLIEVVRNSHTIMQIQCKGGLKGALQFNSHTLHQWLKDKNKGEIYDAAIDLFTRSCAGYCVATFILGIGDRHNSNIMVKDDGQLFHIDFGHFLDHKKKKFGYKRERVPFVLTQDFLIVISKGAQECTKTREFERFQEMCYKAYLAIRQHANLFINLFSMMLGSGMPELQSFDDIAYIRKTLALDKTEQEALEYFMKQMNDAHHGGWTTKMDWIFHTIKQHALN
Chain of PI3 kinase alpha (P27986 whole entry partner): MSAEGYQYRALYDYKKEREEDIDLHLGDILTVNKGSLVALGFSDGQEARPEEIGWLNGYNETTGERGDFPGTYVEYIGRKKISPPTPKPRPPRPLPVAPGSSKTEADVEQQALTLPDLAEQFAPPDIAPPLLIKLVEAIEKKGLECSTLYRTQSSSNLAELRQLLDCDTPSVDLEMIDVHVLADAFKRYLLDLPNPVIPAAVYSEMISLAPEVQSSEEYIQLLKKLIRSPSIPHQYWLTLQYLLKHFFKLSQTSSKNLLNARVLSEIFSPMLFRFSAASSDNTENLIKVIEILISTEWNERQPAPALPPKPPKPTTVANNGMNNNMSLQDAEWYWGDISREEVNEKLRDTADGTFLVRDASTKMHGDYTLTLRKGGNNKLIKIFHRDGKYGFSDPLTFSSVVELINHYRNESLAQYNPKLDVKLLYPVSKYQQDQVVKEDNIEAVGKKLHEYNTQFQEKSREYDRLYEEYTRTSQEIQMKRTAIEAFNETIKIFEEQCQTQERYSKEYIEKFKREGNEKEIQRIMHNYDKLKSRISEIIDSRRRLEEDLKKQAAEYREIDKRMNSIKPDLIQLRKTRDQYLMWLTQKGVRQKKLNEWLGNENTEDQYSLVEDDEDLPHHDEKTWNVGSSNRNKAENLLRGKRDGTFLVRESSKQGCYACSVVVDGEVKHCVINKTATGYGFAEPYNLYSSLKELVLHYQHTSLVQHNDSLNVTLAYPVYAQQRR

As to `N#Cc1cc(N)ncc1-c1cc(-c2cnc(N)cc2C#N)nc(N2CCOCC2)n1` [Compound 317], the EC50 in experiment [1] (setting [2]) is < 10 µM. The IC50 on PI3 kinase alpha (Biological Method 1) is < 1 µM.

Take `Nc1cc(-c2cnc(N)nc2)nc(N2CCOCC2)n1` [Compound 301]: in experiment [1] (setting [2]), the EC50 was < 25 µM. Besides, on PI3 kinase alpha (Biological Method 1), the half-maximal inhibitory concentration (IC50) was < 1 µM.

Turning to `CC(=O)N1CCC[C@@H](Oc2cc(-c3cnc(N)cc3C(F)(F)F)nc(N3CCOCC3)n2)C1` [Compound 453], in experiment [1] (ovarian cancer cell line A2780), the EC50 is < 10 µM. Moreover, the concentration for half-maximal inhibition (IC50) on PI3 kinase alpha is < 1 µM.

As for `Nc1ccc(-c2cc(N3CCOc4ccccc43)nc(N3CCOCC3)n2)cn1` [Compound 387], in experiment [1] (setting [2]), the EC50 was < 10 µM. Besides, the IC50 at PI3 kinase alpha (Biological Method 1) is < 1 µM.

Consider `CC(=O)Nc1cccc(-c2cc(-c3ccc(N)nc3)nc(N3CCOCC3)n2)c1` [Compound 250], for which the EC50 in experiment [1] (setting [2]) is < 10 µM. Also, the IC50 at PI3 kinase alpha (Biological Method 1) is < 1 µM.

In the case of `CS(=O)(=O)Nc1cccc(Nc2cc(-c3ccc(N)nc3)nc(N3CCOCC3)n2)c1` [Compound 361], the concentration for a half-maximal effect (EC50) in experiment [1] (setting [2]) was < 10 µM. Also, the 50% inhibitory concentration (IC50) at PI3 kinase alpha (Biological Method 1) is < 1 µM.

With `COc1ccc(Nc2cc(-c3cnc(N)nc3C)nc(N3CCOCC3)n2)cn1` [Compound 476], the EC50 in experiment [1] (ovarian cancer cell line A2780) is < 10 µM. At PI3 kinase alpha, the half-inhibitory concentration (IC50) is < 1 µM.

Take `COc1cc2cc(Nc3cc(-c4ccc(N)nc4)nc(N4CCOCC4)n3)cnc2cc1OC` [Compound 311]: the EC50 in experiment [1] (setting [2]) was < 1 µM. The IC50 at PI3 kinase alpha (Biological Method 1) is < 1 µM.

With `Cc1c(-c2cnc(N)nc2)nc(N2CCOCC2)nc1-c1cnc(N)nc1` [Compound 484], in experiment [1] (ovarian cancer cell line A2780), the EC50 is < 10 µM. Further, at PI3 kinase alpha, the IC50 was < 1 µM.

Take `Nc1ccc(-c2cc(Nc3cc(Cl)ccn3)nc(N3CCOCC3)n2)cn1` [Compound 349]: the EC50 in experiment [1] (setting [2]) was < 25 µM. In addition, the IC50 at PI3 kinase alpha (Biological Method 1) is < 1 µM.

As for `Nc1ncc(-c2cc(-c3cncc(O)c3)nc(N3CCOCC3)n2)cn1` [Compound 274], the EC50 in experiment [1] (setting [2]) was < 1 µM. In addition, the IC50 at PI3 kinase alpha (Biological Method 1) was < 1 µM.

Take `COc1ccc(CCNc2cc(-c3ccc(N)nc3)nc(N3CCOCC3)n2)cc1` [Compound 302]: the EC50 in experiment [1] (setting [2]) is < 25 µM. In addition, the IC50 at PI3 kinase alpha (Biological Method 1) was < 10 µM.

Turning to `CN1CCC(Oc2ccc(-c3cc(-c4cnc(N)nc4)nc(N4CCOCC4)n3)cn2)CC1` [Compound 277], the EC50 in experiment [1] (setting [2]) is < 10 µM. Also, the IC50 at PI3 kinase alpha (Biological Method 1) is < 1 µM.

Consider `Nc1ncc(-c2cc(-c3cccc4ncccc34)nc(N3CCOCC3)n2)cn1` [Compound 280], for which the EC50 in experiment [1] (setting [2]) was < 10 µM. In addition, at PI3 kinase alpha (Biological Method 1), the IC50 was < 1 µM.

On to `CN1CCC(Oc2ccc(Nc3cc(-c4ccc(N)nc4)nc(N4CCOCC4)n3)cn2)CC1` [Compound 276], for which the 50% effective concentration (EC50) in experiment [1] (setting [2]) is < 10 µM. Further, the half-maximal inhibitory concentration (IC50) at PI3 kinase alpha (Biological Method 1) is < 1 µM.

For the compound `Nc1cc(C(F)(F)F)c(-c2cc(N3CCS(=O)(=O)CC3)nc(N3CCOCC3)n2)cn1` [Compound 331], the EC50 in experiment [1] (setting [2]) is < 25 µM. Besides, on PI3 kinase alpha (Biological Method 1), the IC50 is < 1 µM.

`NC(=O)c1cccc(-c2cc(-c3ccc(N)nc3)nc(N3CCOCC3)n2)c1` [Compound 251]: the EC50 in experiment [1] (setting [2]) was < 10 µM. The IC50 on PI3 kinase alpha (Biological Method 1) was < 1 µM.

On to `Nc1ncc(-c2cc(Cl)nc(N3CCOCC3)n2)cn1` [Compound 523], for which the EC50 in experiment [1] (ovarian cancer cell line A2780) was < 10 µM. For the same compound, the IC50 on PI3 kinase alpha is < 1 µM.

On to `NC(=O)c1ccnc(Nc2cc(-c3cnc(N)cc3C(F)(F)F)nc(N3CCOCC3)n2)c1` [Compound 242], for which the EC50 in experiment [1] (setting [2]) is < 10 µM. In addition, at PI3 kinase alpha (Biological Method 1), the IC50 is < 1 µM.

For `NC(=O)c1ccnc(Nc2cc(-c3ccc(N)nc3)nc(N3CCOCC3)n2)c1` [Compound 348], the EC50 in experiment [1] (setting [2]) was < 25 µM. Further, the IC50 at PI3 kinase alpha (Biological Method 1) was < 1 µM.

Consider `Nc1ccc(-c2cc(Nc3ccc(F)cc3)nc(N3CCOCC3)n2)cn1` [Compound 305], for which the EC50 in experiment [1] (setting [2]) was < 10 µM. Also, on PI3 kinase alpha (Biological Method 1), the 50% inhibitory concentration (IC50) is < 1 µM.

For `N#Cc1cnc(Nc2cc(-c3cnc(N)nc3C(F)(F)F)nc(N3CCOCC3)n2)s1` [Compound 545], the EC50 in experiment [1] (ovarian cancer cell line A2780) is < 25 µM.

For `Nc1ncc(-c2cc(Nc3cnc4ccccc4c3)nc(N3CCOCC3)n2)c(=O)[nH]1` [Compound 470], the EC50 in experiment [1] (ovarian cancer cell line A2780) is < 10 µM.

Regarding `Nc1ccc(-c2cc(N3CCOCC3)nc(N3CCOCC3)n2)c(F)n1` [Compound 550], the EC50 in experiment [1] (ovarian cancer cell line A2780) is < 10 µM.

With `Nc1cc(C(F)(F)F)c(-c2nc(N3CCOCC3)nc(N3CCOCC3)c2Cl)cn1` [Compound 312], at PI3 kinase alpha (Biological Method 1), the IC50 is < 1 µM.

Take `CC(C)N1CCN(c2ccc(-c3cc(-c4ccc(N)nc4)nc(N4CCOCC4)n3)cn2)CC1` [Compound 507]: the IC50 at PI3 kinase alpha is < 1 µM.

In the case of `Nc1ccc(-c2cc(NC(=O)C3CCCCC3)nc(N3CCOCC3)n2)cn1` [Compound 298], the IC50 on PI3 kinase alpha (Biological Method 1) was < 1 µM.

As for `Nc1ncc(-c2cc(Nc3cnc4ccccc4c3)nc(N3CCOCC3)n2)cc1S(N)(=O)=O` [Compound 222], the IC50 at PI3 kinase alpha (Biological Method 1) was < 10 µM.

On to `CC(=O)Nc1ccccc1Nc1cc(-c2ccc(N)nc2)nc(N2CCOCC2)n1` [Compound 353], for which, at PI3 kinase alpha (Biological Method 1), the IC50 was < 10 µM.

`Nc1ccc(-c2cc(C(=O)N3CCNCC3)nc(N3CCOCC3)n2)cn1` [Compound 224]: on PI3 kinase alpha (Biological Method 1), the IC50 is < 10 µM.

As for `Nc1ccc(-c2cc(Nc3ccccc3-n3ccnc3)nc(N3CCOCC3)n2)cn1` [Compound 355], the IC50 at PI3 kinase alpha (Biological Method 1) is < 1 µM.

Regarding `Nc1ccc(-c2cc(-c3ccc(F)nc3)nc(N3CCOCC3)n2)cn1` [Compound 228], the IC50 at PI3 kinase alpha (Biological Method 1) was < 1 µM.

As to `Nc1ccc(-c2cc(Nc3ccc4c(c3)NC(=O)CO4)nc(N3CCOCC3)n2)cn1` [Compound 381], the IC50 on PI3 kinase alpha (Biological Method 1) was < 1 µM.

On to `CN(C)CCOc1ccc(-c2cc(-c3ccc(N)nc3)nc(N3CCOCC3)n2)cn1` [Compound 225], for which the half-inhibitory concentration (IC50) at PI3 kinase alpha (Biological Method 1) was < 1 µM.

Consider `Nc1ccc(-c2cc(NC(=O)c3cccnc3)nc(N3CCOCC3)n2)cn1` [Compound 297], for which the IC50 at PI3 kinase alpha (Biological Method 1) was < 1 µM.

Turning to `Cc1c(-c2cnc(N)nc2)nc(N2CCOCC2)nc1-c1ccccc1S(=O)(=O)NC(C)(C)C` [Compound 547], the IC50 on PI3 kinase alpha is < 10 µM.

`Nc1cc(C(F)(F)F)c(-c2cc(N3CCOC4(CCCC4)C3)nc(N3CCOCC3)n2)cn1` [Compound 319]: at PI3 kinase alpha (Biological Method 1), the IC50 was < 1 µM.

On to `Nc1ccc(-c2cc(Nc3cccc4c3OCCO4)nc(N3CCOCC3)n2)cn1` [Compound 389], for which the IC50 on PI3 kinase alpha (Biological Method 1) is < 1 µM.

As to `Nc1ccc(-c2cc(Nc3cccc4cn[nH]c34)nc(N3CCOCC3)n2)cn1` [Compound 346], the IC50 at PI3 kinase alpha (Biological Method 1) is < 1 µM.

Regarding `CN1CCC(Oc2ccc(-c3cc(-c4ccc(N)nc4)nc(N4CCOCC4)n3)cn2)CC1` [Compound 226], the IC50 on PI3 kinase alpha (Biological Method 1) is < 1 µM.

`CS(=O)(=O)c1ccccc1Nc1cc(-c2cnc(N)cc2C(F)(F)F)nc(N2CCOCC2)n1` [Compound 240]: the IC50 on PI3 kinase alpha (Biological Method 1) is < 1 µM.

As for `Cn1cnnc1Sc1cc(-c2ccc(N)nc2)nc(N2CCOCC2)n1` [Compound 293], the half-inhibitory concentration (IC50) at PI3 kinase alpha (Biological Method 1) was < 10 µM.

For the compound `Nc1ccc(-c2cc(Nc3cnc4c(Cl)ccc(OCCN5CCCC5=O)c4c3)nc(N3CCOCC3)n2)cn1` [Compound 493], on PI3 kinase alpha, the IC50 is < 1 µM.

For `CS(=O)(=O)Nc1cc(N)ncc1-c1cc(Nc2cnc3ccccc3c2)nc(N2CCOCC2)n1` [Compound 492], the IC50 on PI3 kinase alpha was < 1 µM.

On to `Nc1ccc(-c2nc(N3CCOCC3)ncc2C(F)(F)F)cn1` [Compound 473], for which the IC50 on PI3 kinase alpha is < 10 µM.

Take `Nc1ncc(-c2nc(N3CCOCC3)ncc2C(=O)NCC2CCCO2)cn1` (stereo not shown) [Compound 421]: the IC50 at PI3 kinase alpha was < 10 µM.

Take `CN(c1cc(-c2ccc(N)nc2)nc(N2CCOCC2)n1)C1CCCCC1` [Compound 372]: the half-inhibitory concentration (IC50) at PI3 kinase alpha (Biological Method 1) is < 10 µM.

Take `Nc1ccc(-c2cc(NC3CCOCC3)nc(N3CCOCC3)n2)cn1` [Compound 374]: the IC50 on PI3 kinase alpha (Biological Method 1) is < 10 µM.

Take `Nc1ncc(-c2cc(N[C@@H]3CCC[C@H]3OCc3ccccc3)nc(N3CCOCC3)n2)cn1` [Compound 398]: the IC50 on PI3 kinase alpha was < 1 µM.

As usually defined, the EC50 is the midpoint of the concentration-response curve. A lower EC50 goes with greater potency. The IC50 is the point on the concentration scale where inhibition reaches its midpoint.
